According to ChEMBL document CHEMBL4033663, “Design, combinatorial synthesis and biological evaluations of novel 3-amino-1'-((1-aryl-1H-1,2,3-triazol-5-yl)methyl)-2'-oxospiro[benzo[a] pyrano[2,3-c]phenazine-1,3'-indoline]-2-carbonitrile antitumor hybrid molecules” (Eur J Med Chem, 2017):

Experiments:
HepG2 = experiment: Antiproliferative activity against human HepG2 cells after 48 hrs by MTT assay; type: functional, cell-based; conditions: HepG2, 48 h
MCF7 = experiment: Antiproliferative activity against human MCF7 cells after 48 hrs by MTT assay; type: functional, cell-based; conditions: MCF7, 48 h
HUVEC = experiment: Antiproliferative activity against human HUVEC cells after 48 hrs by MTT assay; type: cell-based
L02 = experiment: Antiproliferative activity against human L02 cells after 48 hrs by MTT assay; type: cell-based; conditions: L02, 48 h
HCT-116 = experiment: Antiproliferative activity against human HCT116 cells after 48 hrs by MTT assay; type: functional, cell-based; conditions: HCT-116, 48 h
A549 = experiment: Antiproliferative activity against human A549 cells after 48 hrs by MTT assay; type: functional, cell-based; conditions: A549, 48 h

| SMILES | IC50 (HepG2) [µM] | IC50 (MCF7) [µM] | IC50 (HUVEC) [µM] | IC50 (L02) [µM] | IC50 (HCT-116) [µM] | IC50 (A549) [µM] |
| --- | --- | --- | --- | --- | --- | --- |
| COc1ccc(OC)c(-n2nncc2CN2C(=O)C3(C(C#N)=C(N)Oc4c(N)cc5nc6ccccc6nc5c43)c3ccccc32)c1 (configuration not stated) | 45.1 | 28.1 | > 50 | > 50 | > 50 | 28.1 |
| CC(=O)Nc1ccc(-n2nncc2CN2C(=O)C3(C(C#N)=C(N)Oc4c(N)cc5nc6ccccc6nc5c43)c3ccccc32)cc1 (configuration not stated) | > 50 | > 50 | > 50 | > 50 | > 50 | > 50 |
| Cc1cc(C)cc(-n2nncc2CN2C(=O)C3(C(C#N)=C(N)Oc4c3c3nc5ccccc5nc3c3ccccc43)c3ccccc32)c1 (configuration not stated) | > 50 | > 50 | > 50 | > 50 | > 50 | > 50 |
| COc1ccc(-n2nncc2CN2C(=O)C3(C(C#N)=C(N)Oc4c3c3nc5ccccc5nc3c3ccccc43)c3ccccc32)cc1 (configuration not stated) | > 50 | > 50 | > 50 | > 50 | > 50 | > 50 |
| N#CC1=C(N)Oc2c(N)cc3nc4ccccc4nc3c2C12C(=O)N(Cc1cnnn1-c1ccc(Cl)cc1[N+](=O)[O-])c1ccccc12 (configuration not stated) | > 50 | > 50 | > 50 | > 50 | 28.7 | > 50 |
| Cc1cccc(-n2nncc2CN2C(=O)C3(C(C#N)=C(N)Oc4c3c3nc5ccccc5nc3c3ccccc43)c3ccccc32)c1 (configuration not stated) | > 50 | > 50 | > 50 | > 50 | > 50 | 39.6 |
| Cc1ccc(-n2nncc2CN2C(=O)C3(C(C#N)=C(N)Oc4c3c3nc5ccccc5nc3c3ccccc43)c3ccccc32)cc1C (configuration not stated) | > 50 | > 50 | > 50 | > 50 | > 50 | > 50 |
| COc1ccc(-n2nncc2CN2C(=O)C3(C(C#N)=C(N)Oc4c(N)cc5nc6ccccc6nc5c43)c3ccccc32)cc1 (configuration not stated) | > 50 | > 50 | > 50 | > 50 | > 50 | > 50 |
| N#CC1=C(N)Oc2c(c3nc4ccccc4nc3c3ccccc23)C12C(=O)N(Cc1cnnn1-c1ccc([N+](=O)[O-])cc1)c1ccccc12 (configuration not stated) | > 50 | > 50 | > 50 | > 50 | > 50 | > 50 |
| Cc1cc(C)cc(-n2nncc2CN2C(=O)C3(C(C#N)=C(N)Oc4c(N)cc5nc6ccccc6nc5c43)c3ccccc32)c1 (configuration not stated) | > 50 | > 50 | > 50 | > 50 | > 50 | 31.2 |
| N#CC1=C(N)Oc2c(N)cc3nc4ccccc4nc3c2C12C(=O)N(Cc1cnnn1-c1ccc(Cl)cc1)c1ccccc12 (configuration not stated) | > 50 | > 50 | > 50 | > 50 | > 50 | > 50 |
| CC(=O)Nc1ccc(-n2nncc2CN2C(=O)C3(C(C#N)=C(N)Oc4c3c3nc5ccccc5nc3c3ccccc43)c3ccccc32)cc1 (configuration not stated) | > 50 | > 50 | > 50 | > 50 | > 50 | > 50 |
| N#CC1=C(N)Oc2c(c3nc4ccccc4nc3c3ccccc23)C12C(=O)N(Cc1cnnn1-c1ccc(Cl)cc1)c1ccccc12 (configuration not stated) | > 50 | > 50 | > 50 | > 50 | > 50 | > 50 |
| N#CC1=C(N)Oc2c(N)cc3nc4ccccc4nc3c2C12C(=O)N(Cc1cnnn1-c1cccc(Br)c1)c1ccccc12 (configuration not stated) | > 50 | > 50 | > 50 | > 50 | 26.1 | 18.9 |
| Cc1ccc(-n2nncc2CN2C(=O)C3(C(C#N)=C(N)Oc4c3c3nc5ccccc5nc3c3ccccc43)c3ccccc32)c(C)c1 (configuration not stated) | > 50 | > 50 | > 50 | > 50 | > 50 | > 50 |
| N#CC1=C(N)Oc2c(c3nc4ccccc4nc3c3ccccc23)C12C(=O)N(Cc1cnnn1-c1ccc(F)cc1)c1ccccc12 (configuration not stated) | > 50 | > 50 | > 50 | > 50 | > 50 | > 50 |
| CCc1ccccc1-n1nncc1CN1C(=O)C2(C(C#N)=C(N)Oc3c(N)cc4nc5ccccc5nc4c32)c2ccccc21 (configuration not stated) | 17.9 | 24.6 | > 50 | 22.9 | 10.3 | 24.6 |
| N#CC1=C(N)Oc2c(c3nc4ccccc4nc3c3ccccc23)C12C(=O)N(Cc1cnnn1-c1ccc(F)c(Cl)c1)c1ccccc12 (configuration not stated) | > 50 | > 50 | > 50 | > 50 | > 50 | > 50 |
| N#CC1=C(N)Oc2c(N)cc3nc4ccccc4nc3c2C12C(=O)N(Cc1cnnn1-c1c(F)cccc1F)c1ccccc12 (configuration not stated) | > 50 | > 50 | > 50 | > 50 | > 50 | > 50 |
| N#CC1=C(N)Oc2c(N)cc3nc4ccccc4nc3c2C12C(=O)N(Cc1cnnn1-c1cc(Cl)ccc1Cl)c1ccccc12 (configuration not stated) | 33.1 | 33.2 | > 50 | > 50 | > 50 | 10.9 |
| CCOc1ccc(-n2nncc2CN2C(=O)C3(C(C#N)=C(N)Oc4c3c3nc5ccccc5nc3c3ccccc43)c3ccccc32)cc1 (configuration not stated) | > 50 | > 50 | > 50 | > 50 | > 50 | 25.2 |
| Cc1ccc(-n2nncc2CN2C(=O)C3(C(C#N)=C(N)Oc4c(N)cc5nc6ccccc6nc5c43)c3ccccc32)cc1C (configuration not stated) | > 50 | > 50 | > 50 | > 50 | > 50 | > 50 |
